“And” between values parts separate entries of the source, which are not always exact repeats. Equal values may be shown once.
What was measured:
[1] = In vitro dissolution test (compartment diffusion through dialysis membrane, sink condition); type: physicochemical
Experimental: The dissolution rate of the Fluticasone propionate form A nanocrystals of the nanosuspension of the invention was assessed and compared to the dissolution rate of a standard Fluticasone propionate form 1 micronized material (reference sample). Dissolution profiles of nanocrystals of Fluticasone propionate form A of two nanosuspensions of the invention and of Fluticasone propionate form 1 micronized were performed using a dissolution method. The study was performed using a compartment diffusion analysis through a dialysis membrane and sink condition. The sink condition was achieved through the use of a receptor fluid containing 30 mM phosphate buffer, pH 7.4 with 5% HPβCD cyclodextrins and also by a complete replacement of the buffer every 24 hours to stay below the saturation point. The saturation point was estimated to be 5 μg/g under those experimental conditions and the measurements performed as well as the buffer replacement have shown a maximum concentration of 1.5 μg/g. The study was conducted at a temperature of 37° C. The details of the dissolution test method are provided below: A 5-fold dilution with the formulation vehicle (placebo solution containing all the formulation excipients including the surfactants) of two 0.1% w/w Fluticasone propionate form A nanosuspensions was conducted to obtain a final concentration of 0.02% w/w Fluticasone propionate inside the dialysis device. Fluticasone propionate form 1 micronized was suspended in the same phosphate buffer used in the receiving compartment of the dialysis system. Fluticasone propionate release was carried at 1-2 RPM. […] These aliquots were immediately centrifuged and the measurements were performed by HPLC

[2] = 14-day repeated dose toxicokinetic study, topical application to eyelid margin; design: species or system Beagle dogs; settings: dog, in vivo; for Cmax / Tmax / AUC(0-t) / AUC0-24 h: Beagle, topical or ocular; for AUC(0-t): AUC0-24 h
Excerpt: The purpose of this study was to evaluate the toxicokinetic of fluticasone propionate Form A nanosuspensions of the invention (see Table 10 below) administered via topical application directly to the rim (margin) of upper and lower eyelids of both eyes of Beagle dogs.
Fifty naïve Beagle dogs (25 males and 25 females), approximately 5-6 months old and weighing 5.7 to 8.8 kg for males and females at the outset of the study were assigned to treatment groups (groups 1-4) and to vehicle group.
Male and female Beagle dogs were dosed with fluticasone propionate at 1.6, 9.6, and 32 μg/day (bilateral QD topical application) or at 64 μg/day (bilateral BID topical application) via eye lid applicator directly to the upper and lower eyelids of both eyes once or twice daily (minimum of 6 hours between doses) for 14 consecutive days.
Blood for toxicokinetic evaluation was collected from all animals at selected time points on Days 1 and 14.
Ophthalmology examinations were performed prior to treatment initiation, during the first and second weeks of dosing and during the last week of recovery. Eyes were scored once daily according to the modified Draize scale.
The reversibility of the effects of Fluticasone Propionate nanosuspension was assessed with a 14-day recovery period.

[3] = Particle size distribution by laser diffraction (Horiba LA-950) during preparation; type: physicochemical; settings: for particle size (D50—median): materials used in the dissolution test
Experimental: The particle size of the isolated nanocrystals was evaluated using a laser scattering Particle size distribution analyzer (Horiba LA-950).
4000 g of vehicle 1 were introduced into a 10 L process vessel containing a stir bar, by filtration through a PES 0.2 μm media and were set aside for further use. In a 2 L beaker, 15.04 g of the fluticasone propionate Form A nanocrystals were introduced together with some vehicle 1. […] This concentrated slurry was subject to high-shear, high-speed mixing at 6000±10 RPM for 10 minutes and the particle size distribution was tested by laser diffraction on a Horiba LA-950S2 PSD analyzer.
The 1% w/w fluticasone propionate Form A nanocrystals slurry was subject to high-shear, high-speed mixing at 6000±10 RPM for 10 minutes and the particle size distribution was tested by laser diffraction using a Horiba LA-95052 PSD analyzer.
The particle size distribution was tested by laser diffraction using a Horiba LA-950S2 PSD analyzer.

[4] = particle size at preparation, Horiba LA-950
[5] = time point 3 h, 37° C., listed as Fluticasone propionate form A nanocrystals
[6] = time point 5 h, 37° C., listed as Fluticasone propionate form A nanocrystals
[7] = time point 19 h, 37° C., listed as Fluticasone propionate form A nanocrystals
[8] = time point 24 h, 37° C., listed as Fluticasone propionate form A nanocrystals
[9] = time point 48 h, 37° C., listed as Fluticasone propionate form A nanocrystals
[10] = time point 72 h, 37° C., listed as Fluticasone propionate form A nanocrystals

CCC(=O)O[C@]1(C(=O)SCF)[C@H](C)C[C@H]2[C@@H]3C[C@H](F)C4=CC(=O)C=C[C@]4(C)[C@@]3(F)[C@@H](O)C[C@@]21C [Fluticasone Propionate, fluticasone propionate]
saturation point ([1]; receptor fluid: 30 mM phosphate buffer, pH 7.4 with 5% HPβCD, 37° C.): ~5 µg/g
Cmax ([2]; both sexes, 1.6 ug/day, Cmax): 0.0281 ± 0.0266 ng/mL
Tmax ([2]; both sexes, 1.6 ug/day, Tmax): 45 min
AUC(0-t) ([2]; both sexes, 9.6 ug/day): 0.191 ± 0.335 ng·h/mL
Cmax ([2]; both sexes, 9.6 ug/day, Cmax): 0.0608 ± 0.0487 ng/mL
Tmax ([2]; both sexes, 9.6 ug/day, Tmax): 30 min
AUC(0-t) ([2]; both sexes, 32 ug/day): 0.481 ± 0.361 ng·h/mL
Cmax ([2]; both sexes, 32 ug/day, Cmax): 0.13 ± 0.155 ng/mL
Tmax ([2]; both sexes, 32 ug/day, Tmax): 30 min
AUC(0-t) ([2]; both sexes, 64 ug/day): 0.914 ± 0.413 ng·h/mL
Cmax ([2]; both, 1.6 ug/day): 0.0324 ± 0.0264 ng/mL
Tmax ([2]; both, 1.6 ug/day): 30 min
AUC0-24 h ([2]; both, 9.6 ug/day): 0.101 ± 0.102 ng·h/mL
Cmax ([2]; both, 9.6 ug/day): 0.0798 ± 0.07 ng/mL
Tmax ([2]; both, 9.6 ug/day): 30 min
AUC0-24 h ([2]; both, 32 ug/day): 0.482 ± 0.407 ng·h/mL
Cmax ([2]; both, 32 ug/day): 0.25 ± 0.219 ng/mL
Tmax ([2]; both, 32 ug/day): 30 min
AUC0-24 h ([2]; both, 64 ug/day): 0.76 ± 0.188 ng·h/mL
exposure versus dose [2]: dose-dependent
gender-related differences in exposure [2]: no discernable gender-related differences in exposure

CCC(=O)O[C@]1(C(=O)SCF)[C@H](C)C[C@H]2[C@@H]3C[C@H](F)C4=CC(=O)C=C[C@]4(C)[C@@]3(F)[C@@H](O)C[C@@]21C [Micronized Fluticasone propionate form 1, fluticasone propionate]
particle size (D50—median) ([3]; listed as Fluticasone propionate form 1 micronized material): 4.64 μm
particle size (D50—median) ([3]; listed as micronized Fluticasone propionate form 1): 4.64 μm
% Dissolution Average % ([1]; time point 3 h, 37° C.): 0.7%
% Dissolution Tube #1 ([1]; time point 3 h, 37° C.): 0.8%
% Dissolution Tube #2 ([1]; time point 3 h, 37° C.): 0.5%
% Dissolution Tube #3 ([1]; time point 3 h, 37° C.): 0.9%
% Dissolution Average % ([1]; time point 5 h, 37° C.): 2.6%
% Dissolution Tube #1 ([1]; time point 5 h, 37° C.): 2.9%
% Dissolution Tube #2 ([1]; time point 5 h, 37° C.): 1.9%
% Dissolution Tube #3 ([1]; time point 5 h, 37° C.): 3.0%
% Dissolution Average % ([1]; time point 19 h, 37° C.): 19.4%
% Dissolution Tube #1 ([1]; time point 19 h, 37° C.): 20.9%
% Dissolution Tube #2 ([1]; time point 19 h, 37° C.): 17.1%
% Dissolution Tube #3 ([1]; time point 19 h, 37° C.): 20.3%
% Dissolution Average % ([1]; time point 24 h, 37° C.): 22.6%
% Dissolution Tube #1 ([1]; time point 24 h, 37° C.): 24.2%
% Dissolution Tube #2 ([1]; time point 24 h, 37° C.): 20.2%
% Dissolution Tube #3 ([1]; time point 24 h, 37° C.): 23.5%
% Dissolution Average % ([1]; time point 48 h, 37° C.): 48.6%
% Dissolution Tube #1 ([1]; time point 48 h, 37° C.): 51.1%
% Dissolution Tube #2 ([1]; time point 48 h, 37° C.): 44.0%
% Dissolution Tube #3 ([1]; time point 48 h, 37° C.): 50.6%
% Dissolution Average % ([1]; time point 72 h, 37° C.): 73.4%
% Dissolution Tube #1 ([1]; time point 72 h, 37° C.): 77.4%
% Dissolution Tube #2 ([1]; time point 72 h, 37° C.): 66.7%
% Dissolution Tube #3 ([1]; time point 72 h, 37° C.): 76.2%

CCC(=O)O[C@]1(C(=O)SCF)[C@H](C)C[C@H]2[C@@H]3C[C@H](F)C4=CC(=O)C=C[C@]4(C)[C@@]3(F)[C@@H](O)C[C@@]21C [fluticasone propionate]
particle size (D50—median) [3]: 0.434 μm
D50 [3, 4]: 0.2153 μm
D90 [3, 4]: 0.6073 μm
dissolution profile compared with Fluticasone propionate form 1 micronized material ([1]; despite different particle size): similar
% Dissolution Average % ([1]; time point 1 h, 37° C.): 0.0%
% Dissolution Tube #1 ([1]; time point 1 h, 37° C.): 0.0%
% Dissolution Tube #2 ([1]; time point 1 h, 37° C.): 0.0%
% Dissolution Tube #3 ([1]; time point 1 h, 37° C.): 0.0%
% Dissolution Average % [1, 5]: 0.8% and 0.7%
% Dissolution Tube #1 [1, 5]: 0.2% and 0.6%
% Dissolution Tube #2 [1, 5]: 1.4% and 0.5%
% Dissolution Tube #3 [1, 5]: 0.7% and 0.8%
% Dissolution Average % [1, 6]: 2.2% and 2.3%
% Dissolution Tube #1 [1, 6]: 1.3% and 2.4%
% Dissolution Tube #2 [1, 6]: 2.8% and 2.0%
% Dissolution Tube #3 [1, 6]: 2.4% and 2.6%
% Dissolution Average % [1, 7]: 17.8% and 19.0%
% Dissolution Tube #1 [1, 7]: 14.5% and 19.0%
% Dissolution Tube #2 [1, 7]: 20.4% and 18.2%
% Dissolution Tube #3 [1, 7]: 18.7% and 19.7%
% Dissolution Average % [1, 8]: 21.3% and 22.4%
% Dissolution Tube #1 [1, 8]: 17.5% and 22.4%
% Dissolution Tube #2 [1, 8]: 24.0% and 21.5%
% Dissolution Tube #3 [1, 8]: 22.4% and 23.2%
% Dissolution Average % [1, 9]: 46.2% and 48.5%
% Dissolution Tube #1 [1, 9]: 38.7% and 49.1%
% Dissolution Tube #2 [1, 9]: 51.4% and 45.6%
% Dissolution Tube #3 [1, 9]: 48.6% and 50.9%
% Dissolution Average % [1, 10]: 70.5% and 73.9%
% Dissolution Tube #1 [1, 10]: 59.6% and 75.1%
% Dissolution Tube #2 [1, 10]: 78.1% and 69.1%
% Dissolution Tube #3 [1, 10]: 74.0% and 77.7%

— patent publication US20220241296A1, “PROCESS FOR THE PREPARATION OF STERILE OPHTHALMIC AQUEOUS FLUTICASONE PROPIONATE FORM A NANOCRYSTALS SUSPENSIONS” (NICOX OPHTHALMICS, INC., priority 2019, published 2022)
